The values that follow come from the supplement of paper PMC4862054.

Holding throughout (conditions): 72 h
In test [1] the test system is BT-474. The method, boiled down: (§1)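 Breast cancer cell lines in 20 µl suspension were added to 384-well plates already holding compound at 5 concentrations, spaced in 10-fold steps across a compound-specific 10,000-fold range, and incubated for 72 h. CellTox Green fluorescence (485/520 nm) was read first to measure cell death, followed by CellTiter-Glo luminescence for viability after 10 min at room temperature. Each plate was normalised to 0.1 % DMSO and a positive kill control. EC50 values came from dose-response curve fits and were censored at the top concentration.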

Test [2] relates to CAL-120. In outline: as §1
In test [3] the test system is CAL-148. The method, boiled down:
as §1

The subject of test [4] is CAL-85-1. The method, boiled down:
as §1

Test [5] has as its system DU-4475. The method, boiled down:
as §1

Test [6] relates to HCC1143. The method, boiled down:
as §1

The test system of test [7] is HCC1599. In outline: as §1
In test [8] the test system is HCC1937. In outline:
as §1

For test [9], the system named is HDQ-P1. In outline: as §1
The subject of test [10] is Hs578T. The method, boiled down:
as §1

Test [11] has as its system MCF-10A. The method, boiled down:
as §1

Test [12] concerns MDA-MB-231. In outline:
as §1

Test [13] deals with MDA-MB-436. In outline: as §1
Test [14] deals with MDA-MB-453. The method, boiled down: as §1
Test [15] relates to MDA-MB-468. In outline:
as §1

For test [16], the system named is MFM-223. The method, boiled down:
as §1

Test [17] deals with HCC1937. Here is the method:
(§2)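 Drug sensitivity and resistance testing (DSRT) of breast cancer cell lines in 384-well plates, 5 concentrations in 10-fold dilutions over a compound-specific 10,000-fold range. After 72 h, cytotoxicity was read by CellTox Green fluorescence and viability by CellTiter-Glo luminescence (multiplexed), normalised to DMSO and benzethonium chloride controls. EC50 is the inflection point of the fitted dose-response curve (bottom asymptote free, so it can be relative for partial curves) and is censored at the highest tested concentration. Rows with DSS 0 (no meaningful response) were excluded.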
The source holds these as a separate data set.

Test [18] relates to MDA-MB-468. Here is the method: as §2
This is another data set of the same source.

The test system of test [19] is BT-549. In outline:
as §1

Test [20] has as its system CAL-51. The method, boiled down: as §1
The test system of test [21] is SK-BR-3. In outline:
as §1

The subject of test [22] is CAL-148. The method, boiled down:
(§3)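 Rows with a drug sensitivity score of zero were dropped, and EC50 was taken from the fitted percent-inhibition dose-response curve, censored at the highest concentration. Data were normalised on each plate to vehicle and a positive kill control and checked by Z'-factor. The assay seeded breast cancer cell lines in 20 µl onto 384-well plates pre-loaded with compound in 5 µl medium for 72 h, then added 2.5 µl CellTiter-Blue for 2 h at 37 °C and read fluorescence at 560/590 nm.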
The source holds these as a separate data set.

In test [23] the test system is CAL-51. The method, boiled down: as §3
This is another data set of the same source.

The test system of test [24] is CAL-85-1. In outline: as §3
The source holds these as a separate data set.

The subject of test [25] is DU-4475. The method, boiled down: as §3
The source holds these as a separate data set.

Test [26] concerns MDA-MB-453. In outline:
as §3
This is another data set of the same source.

The test system of test [27] is BT-474. In outline:
as §3
This is another data set of the same source.

For test [28], the system named is CAL-120. The method, boiled down:
as §3
This is another data set of the same source.

In test [29] the test system is Hs578T. In outline:
as §3
This is another data set of the same source.

Test [30] concerns MDA-MB-468. The method, boiled down: as §3
This is another data set of the same source.

The subject of test [31] is MFM-223. The method, boiled down:
as §3
The source holds these as a separate data set.

The test system of test [32] is SK-BR-3. The method, boiled down:
as §3
This is another data set of the same source.

In test [33] the test system is CAL-148. The protocol: as §2
The source holds these as a separate data set.

For test [34], the system named is CAL-51. The protocol:
as §2
The source holds these as a separate data set.

Test [35] deals with CAL-85-1. Here is the method:
as §2
The source holds these as a separate data set.

In test [36] the test system is MDA-MB-231. Here is the method: as §2
The source holds these as a separate data set.

In test [37] the test system is MDA-MB-436. Here is the method: as §2
This is another data set of the same source.

Test [38] relates to MFM-223. Here is the method: as §2
The source holds these as a separate data set.

For test [39], the system named is HDQ-P1. In outline: as §3
This is another data set of the same source.

For test [40], the system named is BT-549. The method, boiled down: as §3
The source holds these as a separate data set.

The test system of test [41] is MDA-MB-436. The method, boiled down: as §3
This is another data set of the same source.

Molecules are shown by their SMILES. A value given as a limit tells only on which side of the number the result lay.

Take `O=C(/C=C/c1cccnc1)NCCCCC1CCN(C(=O)c2ccccc2)CC1` [Daporinad]: the “EC50, CellTiter-Glo” value in [1] came out at 40.8 nM; in [2], 9.73 nM; in [3], 81 nM; in [4], 7.79 nM; in test [5] it was 6.78 nM; in [6] it was 8.05 nM. In addition, the “EC50, CellTiter-Glo” value in [7] was 4.15 nM; in [8], 6.97 nM; in test [9] it was 16.3 nM; in test [10], 4.27 nM; in test [11], 7.85 nM; in [12], 29.6 nM. The “EC50, CellTiter-Glo” value in test [13] came out at 67.4 nM; in [14], 2.71 nM; in test [15], 3.53 nM; in test [16], 2.11 nM. Moreover, the “EC50, CellTox Green” value came out at 24.1 nM in test [17] and 596 nM in test [18].

For `Nc1ccccc1NC(=O)c1ccc(CNC(=O)OCc2cccnc2)cc1` [Entinostat], the “EC50, CellTiter-Glo” value in [1] amounted to 7640 nM; in test [19] it was 925 nM; in [3], 2560 nM; in [20] it was 356 nM; in [4], 8310 nM; in test [5], 3830 nM. For the same compound, the “EC50, CellTiter-Glo” value was 4760 nM in test [6]; 4840 nM in test [7]; 2380 nM in test [9]; 1550 nM in test [10]; 7170 nM in test [12]; 1330 nM in test [13]. The “EC50, CellTiter-Glo” value in test [14] is 2160 nM; in test [15] it was 4170 nM; in test [16], 4850 nM; in test [21], 2160 nM. The “EC50, CellTiter-Blue viability” value in [22] was 2990 nM; in test [23] it was 7860 nM; in test [24], 2700 nM; in test [25], 5700 nM; in test [26], 2860 nM; in test [27] it was 3520 nM. Moreover, the “EC50, CellTiter-Blue viability” value in test [28] worked out at 1890 nM; in test [29], 5880 nM; in test [30], 1520 nM; in test [31], 2710 nM; in test [32], 777 nM. Moreover, the “EC50, CellTox Green” value in test [33] amounted to 4160 nM; in test [34] it was 1140 nM; in [35] it was 4310 nM; in test [36], 7140 nM; in [37], 6220 nM; in [18] it was 1230 nM. Moreover, the “EC50, CellTox Green” value in [38] is 1440 nM.

For `O=C(/C=C/c1cccnc1)NCCCCC1CCN(C(=O)c2ccccc2)CC1` [FK-866], the “EC50, CellTiter-Blue viability” value in test [22] worked out at 34.4 nM; in [23], 12.6 nM; in test [24], 25.7 nM; in [25], 20.1 nM; in test [39] it was 21.3 nM; in test [26] it was 1.68 nM. Also, the “EC50, CellTiter-Blue viability” value in test [27] stood at 17.5 nM; in test [40], 6.08 nM; in [28], 8.66 nM; in test [29] it was 3.75 nM; in test [41], 5.08 nM; in [30], 3.01 nM. Also, the “EC50, CellTiter-Blue viability” value in test [31] was found to be 4.05 nM.

Regarding `Nc1nc(F)nc2c1ncn2[C@@H]1O[C@H](CO)[C@@H](O)[C@@H]1O` [Fludarabine], the “EC50, CellTiter-Glo” value in [19] is 5920 nM; in [2], above 10000 nM; in [13], 7390 nM. For the same compound, in [32], the “EC50, CellTiter-Blue viability” value stood at 2120 nM.

With `CC[C@H](Nc1ncnc2[nH]cnc12)c1nc2cccc(F)c2c(=O)n1-c1ccccc1` [GS-1101], the “EC50, CellTiter-Glo” value in [1] turned out to be 2950 nM; in test [19], 4670 nM; in test [2], 8050 nM; in test [9], 4300 nM; in test [12] it was 4740 nM; in [13], 6900 nM. Moreover, the “EC50, CellTiter-Glo” value in [15] was found to be 7440 nM. Further, the “EC50, CellTox Green” value in test [36] was found to be 8630 nM; in test [18], 1430 nM.
